Common to all, as to format: functional
Experiment [1] relates to Bemisia tabaci. Briefly: Resistance ratio of LC50 for Bemisia tabaci biotype-Q Q1 (sweet potato whitefly) to LC50 for Bemisia tabaci LABS.
Experiment [2] relates to Bemisia tabaci. Put plainly: Resistance ratio of LC50 for Bemisia tabaci biotype-Q Q3 (sweet potato whitefly) to LC50 for Bemisia tabaci LABS.
Experiment [3] concerns Bemisia tabaci. Put plainly: Insecticidal activity against Bemisia tabaci LABS (sweet potato whitefly) after 48 hr by leaf-dip bioassay.
The test system of experiment [4] is Bemisia tabaci. Put plainly: Resistance ratio of LC50 for Bemisia tabaci biotype-B B2 (sweet potato whitefly) to LC50 for Bemisia tabaci LABS.
In experiment [5] the test system is Bemisia tabaci. Put plainly: Resistance ratio of LC50 for Bemisia tabaci biotype-B B1 (sweet potato whitefly) to LC50 for Bemisia tabaci LABS.
Experiment [6] deals with Bemisia tabaci. Put plainly: Resistance ratio of LC50 for Bemisia tabaci biotype-B B3 (sweet potato whitefly) to LC50 for Bemisia tabaci LABS.
The subject of experiment [7] is Bemisia tabaci. Put plainly: Insecticidal activity against Bemisia tabaci biotype-B B4 (sweet potato whitefly) after 48 hr by leaf-dip bioassay. The settings on record: biotype-B B4, 48 h.
Experiment [8] concerns Bemisia tabaci. Put plainly: Resistance ratio of LC50 for Bemisia tabaci biotype-B B4 (sweet potato whitefly) to LC50 for Bemisia tabaci LABS.
The subject of experiment [9] is Bemisia tabaci. Put plainly: Resistance ratio of LC50 for Bemisia tabaci biotype-Q Q2 (sweet potato whitefly) to LC50 for Bemisia tabaci LABS.
For experiment [10], the system named is Bemisia tabaci. Briefly: Insecticidal activity against Bemisia tabaci biotype-Q Q1 (sweet potato whitefly) after 48 hr by leaf-dip bioassay. The note with it: biotype-Q Q1, 48 h.
Experiment [11] relates to Bemisia tabaci. Put plainly: Insecticidal activity against Bemisia tabaci biotype-B B1 (sweet potato whitefly) after 48 hr by leaf-dip bioassay. The note with it: biotype-B B1, 48 h.
The subject of experiment [12] is Bemisia tabaci. Put plainly: Insecticidal activity against Bemisia tabaci biotype-Q Q3 (sweet potato whitefly) after 48 hr by leaf-dip bioassay. The settings on record: biotype-Q Q3, 48 h.
The subject of experiment [13] is Bemisia tabaci. Put plainly: Insecticidal activity against Bemisia tabaci biotype-B B3 (sweet potato whitefly) after 48 hr by leaf-dip bioassay. The settings on record: biotype-B B3, 48 h.
The test system of experiment [14] is Bemisia tabaci. Put plainly: Insecticidal activity against Bemisia tabaci biotype-Q Q2 (sweet potato whitefly) after 48 hr by leaf-dip bioassay. The settings on record: biotype-Q Q2, 48 h.
The subject of experiment [15] is Bemisia tabaci. Put plainly: Insecticidal activity against Bemisia tabaci biotype-B B2 (sweet potato whitefly) after 48 hr by leaf-dip bioassay. The settings on record: biotype-B B2, 48 h.
The subject of experiment [16] is Bemisia tabaci. Put plainly: Selectivity ratio of LC50 for pymetrozine-selected Bemisia tabaci B2 (sweet potato whitefly) to LC50 for Bemisia tabaci B2.
Experiment [17] deals with Bemisia tabaci. Put plainly: Insecticidal activity against pymetrozine-selected Bemisia tabaci B2 (sweet potato whitefly) after 48 hr by leaf-dip bioassay. The note with it: B2, 48 h.
The subject of experiment [18] is Bemisia tabaci. Briefly: Insecticidal activity against Bemisia tabaci biotype-B B2 (sweet potato whitefly) after 96 hr by leaf-dip bioassay. The settings on record: biotype-B B2, 96 h.
In experiment [19] the test system is Bemisia tabaci. Put plainly: Insecticidal activity against Bemisia tabaci LABS (sweet potato whitefly) after 96 hr by leaf-dip bioassay.
The subject of experiment [20] is Bemisia tabaci. Briefly: Insecticidal activity against pymetrozine-selected Bemisia tabaci B1B3 (sweet potato whitefly) after 96 hr by leaf-dip bioassay. The settings on record: B1B3, 96 h.
Experiment [21] has as its system Bemisia tabaci. Put plainly: Insecticidal activity against thiamethoxam-selected Bemisia tabaci B1B3 (sweet potato whitefly) after 96 hr by leaf-dip bioassay. The settings on record: B1B3, 96 h.
Experiment [22] concerns Bemisia tabaci. Briefly: Insecticidal activity against Bemisia tabaci biotype-Q Q2 (sweet potato whitefly) after 96 hr by leaf-dip bioassay. The note with it: biotype-Q Q2, 96 h.
In experiment [23] the test system is Bemisia tabaci. Put plainly: Insecticidal activity against Bemisia tabaci biotype-B B1 (sweet potato whitefly) after 96 hr by leaf-dip bioassay. The note with it: biotype-B B1, 96 h.
Experiment [24] relates to Bemisia tabaci. Briefly: Insecticidal activity against Bemisia tabaci biotype-B B3 (sweet potato whitefly) after 96 hr by leaf-dip bioassay. The settings on record: biotype-B B3, 96 h.
Experiment [25] concerns Bemisia tabaci. Put plainly: Insecticidal activity against Bemisia tabaci biotype-Q Q3 (sweet potato whitefly) after 96 hr by leaf-dip bioassay. The settings on record: biotype-Q Q3, 96 h.
Experiment [26] has as its system Bemisia tabaci. Briefly: Insecticidal activity against pymetrozine-selected Bemisia tabaci B2 (sweet potato whitefly) after 96 hr by leaf-dip bioassay. The note with it: B2, 96 h.
Experiment [27] deals with Bemisia tabaci. Put plainly: Insecticidal activity against Bemisia tabaci biotype-Q Q1 (sweet potato whitefly) after 96 hr by leaf-dip bioassay. The settings on record: biotype-Q Q1, 96 h.
Experiment [28] relates to Bemisia tabaci. Put plainly: Selectivity ratio of LC50 for thiamethoxam-selected Bemisia tabaci B1B3 (sweet potato whitefly) to LC50 for Bemisia tabaci B1B3.
The subject of experiment [29] is Bemisia tabaci. Briefly: Insecticidal activity against Bemisia tabaci B1B3 (sweet potato whitefly) after 96 hr by leaf-dip bioassay. The settings on record: B1B3, 96 h.
The subject of experiment [30] is Bemisia tabaci. Briefly: Insecticidal activity against Bemisia tabaci biotype-B B4 (sweet potato whitefly) after 96 hr by leaf-dip bioassay. The note with it: biotype-B B4, 96 h.
Experiment [31] deals with Bemisia tabaci. Briefly: Selectivity ratio of LC50 for pymetrozine-selected Bemisia tabaci B1B3 (sweet potato whitefly) to LC50 for Bemisia tabaci B1B3.
Experiment [32] concerns Bemisia tabaci. Briefly: Insecticidal activity against pymetrozine-selected Bemisia tabaci B1B3 (sweet potato whitefly) after 48 hr by leaf-dip bioassay. The note with it: B1B3, 48 h.
Experiment [33] relates to Bemisia tabaci. Put plainly: Insecticidal activity against thiamethoxam-selected Bemisia tabaci B1B3 (sweet potato whitefly) after 48 hr by leaf-dip bioassay. The note with it: B1B3, 48 h.
Experiment [34] has as its system Bemisia tabaci. Put plainly: Insecticidal activity against Bemisia tabaci B1B3 (sweet potato whitefly) after 48 hr by leaf-dip bioassay. The note with it: B1B3, 48 h.

Molecules are shown by their SMILES. In brackets after ≈: the same amount, converted by molar mass.

Regarding `C/C(=N\C#N)N(C)Cc1ccc(Cl)nc1` [ACETAMIPRID], the RatioLC50 with Bemisia tabaci [1] is recorded as 0.95; in the experiment with Bemisia tabaci [2], 57; in the experiment on Bemisia tabaci [4], 1.2; in the experiment on Bemisia tabaci [5], 2.1; with Bemisia tabaci [6], 30; in the experiment on Bemisia tabaci [8], 15. In the experiment on Bemisia tabaci [9], the RatioLC50 came out at 20. The LC50 in the experiment on Bemisia tabaci [3] turned out to be 3.7 mg/L (≈ 16.6 µM); with Bemisia tabaci [7], 54 mg/L (≈ 243 µM); with Bemisia tabaci [10] it was 3.5 mg/L (≈ 15.7 µM); in the experiment with Bemisia tabaci [11] it was 7.6 mg/L (≈ 34.1 µM); with Bemisia tabaci [12] it was 210 mg/L (≈ 943 µM); with Bemisia tabaci [13] it was 110 mg/L (≈ 494 µM). For the same molecule, the LC50 in the experiment on Bemisia tabaci [14] worked out at 74 mg/L (≈ 332 µM); in the experiment with Bemisia tabaci [15] it was 4.3 mg/L (≈ 19.3 µM).
As for `O=[N+]([O-])/N=C1\NCCN1Cc1ccc(Cl)nc1` [IMIDACLOPRID], the RatioLC50 came to 1.8 in the experiment on Bemisia tabaci [1]; 850 in the experiment on Bemisia tabaci [2]; 0.92 in the experiment on Bemisia tabaci [16]; 3.5 with Bemisia tabaci [4]; 1.2 in the experiment on Bemisia tabaci [5]; 230 in the experiment with Bemisia tabaci [6]. In addition, the RatioLC50 is given as 230 in the experiment with Bemisia tabaci [8] and 420 with Bemisia tabaci [9]. Also, the LC50 with Bemisia tabaci [3] was 4.8 mg/L (≈ 18.8 µM); in the experiment on Bemisia tabaci [17], 23 mg/L (≈ 90 µM); in the experiment on Bemisia tabaci [7], 1100 mg/L (≈ 4300 µM); in the experiment with Bemisia tabaci [10], 8.5 mg/L (≈ 33.2 µM); in the experiment with Bemisia tabaci [11], 5.8 mg/L (≈ 22.7 µM); with Bemisia tabaci [12], 4100 mg/L (≈ 16000 µM). Moreover, the 50% lethal concentration (LC50) in the experiment on Bemisia tabaci [13] was found to be 1100 mg/L (≈ 4300 µM); in the experiment on Bemisia tabaci [14] it was 2000 mg/L (≈ 7820 µM); with Bemisia tabaci [15] it was 17 mg/L (≈ 66.5 µM).
Regarding `CC1=NNC(=O)N(/N=C/c2cccnc2)C1` [PYMETROZINE], the LC50 amounted to 220 mg/L (≈ 1010 µM) in the experiment with Bemisia tabaci [18]; 2.4 mg/L (≈ 11 µM) in the experiment on Bemisia tabaci [19]; 3200 mg/L (≈ 14700 µM) in the experiment on Bemisia tabaci [20]; 1100 mg/L (≈ 5060 µM) with Bemisia tabaci [21]; 930 mg/L (≈ 4280 µM) in the experiment on Bemisia tabaci [22]; 3.9 mg/L (≈ 18 µM) in the experiment with Bemisia tabaci [23]. Further, the LC50 with Bemisia tabaci [24] turned out to be 1200 mg/L (≈ 5520 µM); with Bemisia tabaci [25], 4600 mg/L (≈ 21200 µM); in the experiment on Bemisia tabaci [26] it was 15000 mg/L (≈ 69100 µM); in the experiment with Bemisia tabaci [27], 14 mg/L (≈ 64.4 µM); in the experiment on Bemisia tabaci [29], 140 mg/L (≈ 644 µM); with Bemisia tabaci [30], 1200 mg/L (≈ 5520 µM). Moreover, the RatioLC50 in the experiment on Bemisia tabaci [1] is reported as 5.8; in the experiment on Bemisia tabaci [2] it was 1900; with Bemisia tabaci [16] it was 54; with Bemisia tabaci [4], 92; with Bemisia tabaci [5], 1.6; in the experiment on Bemisia tabaci [6], 1100. The RatioLC50 in the experiment with Bemisia tabaci [8] was found to be 520; with Bemisia tabaci [28], 7.9; with Bemisia tabaci [9], 390; in the experiment on Bemisia tabaci [31], 23.
As for `CN1COCN(Cc2cnc(Cl)s2)/C1=N\[N+](=O)[O-]` [THIAMETHOXAM], the RatioLC50 in the experiment with Bemisia tabaci [1] stood at 3.7; in the experiment with Bemisia tabaci [2], 490; in the experiment on Bemisia tabaci [16], 0.29; with Bemisia tabaci [4], 2.9; with Bemisia tabaci [5] it was 6.3; in the experiment with Bemisia tabaci [6], 150. Also, the RatioLC50 with Bemisia tabaci [8] was found to be 73; with Bemisia tabaci [28], 7; in the experiment on Bemisia tabaci [9], 240; in the experiment with Bemisia tabaci [31], 4.5. Moreover, the LC50 stood at 290 mg/L (≈ 994 µM) in the experiment on Bemisia tabaci [32]; 4.1 mg/L (≈ 14.1 µM) with Bemisia tabaci [3]; 450 mg/L (≈ 1540 µM) with Bemisia tabaci [33]; 8.6 mg/L (≈ 29.5 µM) in the experiment on Bemisia tabaci [17]; 300 mg/L (≈ 1030 µM) in the experiment on Bemisia tabaci [7]; 64 mg/L (≈ 219 µM) in the experiment with Bemisia tabaci [34]. Moreover, the LC50 with Bemisia tabaci [10] came to 15 mg/L (≈ 51.4 µM); in the experiment with Bemisia tabaci [11], 4.5 mg/L (≈ 15.4 µM); in the experiment on Bemisia tabaci [12] it was 2000 mg/L (≈ 6860 µM); with Bemisia tabaci [13], 100 mg/L (≈ 343 µM); in the experiment with Bemisia tabaci [14] it was 980 mg/L (≈ 3360 µM); in the experiment on Bemisia tabaci [15], 12 mg/L (≈ 41.1 µM).

A word on the LC50: it is the concentration that kills 50% of the test population.
